Here are results for three compounds from ChEMBL document CHEMBL5257132, “Discovery of a Novel Series of Potent SHP2 Allosteric Inhibitors” (ACS Med Chem Lett, 2023).

For data set [1], the target named is Voltage-gated inwardly rectifying potassium channel KCNH2 (Homo sapiens, UniProt Q12809). Put plainly: Inhibition of human ERG by fluorescence polarization assay. The format is toxicity.
For data set [2], the target named is T1, Tyrosine-protein phosphatase non-receptor type 11 (Homo sapiens, UniProt Q06124).
T1 sequence (Q06124 whole entry): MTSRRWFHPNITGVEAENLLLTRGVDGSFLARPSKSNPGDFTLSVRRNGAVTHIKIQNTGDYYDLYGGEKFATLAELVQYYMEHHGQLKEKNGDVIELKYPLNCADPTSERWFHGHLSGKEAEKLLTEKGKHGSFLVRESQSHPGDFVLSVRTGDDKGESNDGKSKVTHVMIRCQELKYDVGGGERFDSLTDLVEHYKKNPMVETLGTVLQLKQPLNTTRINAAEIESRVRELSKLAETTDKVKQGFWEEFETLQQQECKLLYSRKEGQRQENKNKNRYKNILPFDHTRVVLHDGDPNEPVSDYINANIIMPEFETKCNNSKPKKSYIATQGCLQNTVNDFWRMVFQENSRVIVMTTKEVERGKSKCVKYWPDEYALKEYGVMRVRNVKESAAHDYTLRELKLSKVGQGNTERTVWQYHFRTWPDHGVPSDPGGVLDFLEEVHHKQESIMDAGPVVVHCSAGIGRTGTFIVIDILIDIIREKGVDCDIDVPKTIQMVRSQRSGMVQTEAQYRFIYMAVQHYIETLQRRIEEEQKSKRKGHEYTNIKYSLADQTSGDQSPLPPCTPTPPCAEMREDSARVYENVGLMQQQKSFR
Put plainly: Allosteric inhibition of recombinant human SHP2 using IRS1 peptide and DiFMUP as substrate incubated for 30 mins followed by DiFMUP addition and measured after 30 mins by fluorescence based microplate reader analysis.

The nature of data set [3]: Apparent permeability of compound at pH 7.4 at 5 uM incubated for 4 hrs by PAMPA based LC-MS/MS analysis. The format is ADME. (In general: PAMPA measures passive passage across an artificial lipid membrane.)
A short description of data set [4]: Inhibition of ERK phosphorylation in human KYSE520 cells incubated for 2 hrs by TR-FRET assay. The following applies: KYSE-520, 2 h. Format: cell-based. A general note: Time-resolved FRET reads energy transfer from a long-lived donor to a nearby acceptor.
Data set [5] can be described thus: Kinetic solubility of compound in FaSSGF by LCMS analysis. The following applies: read-out: Kinetic_solubility. The format is ADME.
Data set [6] is described as follows: Efflux ratio of apparent permeability […] in dog MDCK-MDR1 cells by LC-MS/MS analysis. Format: ADME, cell-based, Canis lupus familiaris.
A short description of data set [7]: AUC in Sprague-Dawley rat plasma at 1 mg/kg,po administered as 60:20:20 PEG400/DMSO/H2O formulation and measured upto 24 hrs in presence of Elacridar by LC-MS/MS analysis. The format is ADME, organism-based. Also noted: time < 24 hrs, dose 1 mg/kg, route po. The following applies: with Elacridar (dose not stated).
Data set [8] is described as follows: Metabolic stability in Sprague-Dawley rat liver microsomes assessed as intrinsic clearance at 1 uM and measured upto 60 mins in presence of NADPH as cofactor by LC-MS/MS analysis. The format is ADME, Microsome. The following applies: read-out: CLH. For orientation: Liver microsomes are vesicles of endoplasmic reticulum, rich in cytochrome P450 enzymes.
A short description of data set [9]: Kinetic solubility of compound in FaSSIF by LCMS analysis. The format is ADME. The note with it: read-out: Kinetic_solubility.
Data set [10] can be described thus: Cmax in Sprague-Dawley rat plasma at 1 mg/kg, po administered as 60:20:20 PEG400/DMSO/H2O formulation and measured upto 24 hrs by LC-MS/MS analysis. Format: ADME, organism-based. Also noted: dose 1 mg/kg, time < 24 hrs, route po.
A short description of data set [11]: AUC in Sprague-Dawley rat plasma at 1 mg/kg,po administered as 60:20:20 PEG400/DMSO/H2O formulation and measured upto 24 hrs by LC-MS/MS analysis. The format is ADME, organism-based. Further details: time < 24 hrs, dose 1 mg/kg, route po.
A short description of data set [12]: Kinetic solubility of compound in FeSSIF by LCMS analysis. The note with it: read-out: Kinetic_solubility. Format: ADME.
Data set [13] has as its system KYSE-520 cell line. Description: Antiproliferative activity against human KYSE520 cells assessed as inhibition of cell proliferation incubated for 96 hrs by CellTiter-Glo reagent based assay. Format: functional. The note with it: KYSE-520, 96 h.
Data set [14] in a line: Metabolic stability in human liver microsomes assessed as intrinsic clearance at 1 uM and measured upto 60 mins in presence of NADPH as cofactor by LC-MS/MS analysis. Format: ADME, Microsome. The following applies: read-out: CLH.
Data set [15] can be described thus: Half life in Sprague-Dawley rat plasma at 0.5 mg/kg, iv and measured upto 24 hrs by LC-MS/MS analysis. Format: ADME, organism-based.
Data set [16] in a line: Volume of distribution at steady state in Sprague-Dawley rat plasma at 0.5 mg/kg, iv and measured upto 24 hrs by LC-MS/MS analysis. The note with it: read-out: Vdss. The format is ADME, organism-based.
A short description of data set [17]: Apparent permeability of compound in dog MDCK-MDR1 cells by LC-MS/MS analysis. Format: ADME, cell-based, Canis lupus familiaris.
Data set [18] in a line: Oral bioavailability in Sprague-Dawley rat plasma at 1 mg/kg administered as 60:20:20 PEG400/DMSO/H2O formulation and measured upto 24 hrs by LC-MS/MS analysis. The format is ADME, organism-based.
Data set [19] is described as follows: AUC in Sprague-Dawley rat plasma at 1 mg/kg,po administered as 50:50 PEG400/Labrasol formulation and measured upto 24 hrs by LC-MS/MS analysis. The format is ADME, organism-based. Also noted: dose 1 mg/kg, time < 24 hrs, route po.
Data set [20] is described as follows: Clearance in Sprague-Dawley rat plasma at 0.5 mg/kg, iv and measured upto 24 hrs by LC-MS/MS analysis. The format is ADME, organism-based.

Each structure is given as a SMILES string. Values after ≈ are worked out from the molar mass of the structure shown.

Chain of Voltage-gated inwardly rectifying potassium channel KCNH2 (Q12809 whole entry): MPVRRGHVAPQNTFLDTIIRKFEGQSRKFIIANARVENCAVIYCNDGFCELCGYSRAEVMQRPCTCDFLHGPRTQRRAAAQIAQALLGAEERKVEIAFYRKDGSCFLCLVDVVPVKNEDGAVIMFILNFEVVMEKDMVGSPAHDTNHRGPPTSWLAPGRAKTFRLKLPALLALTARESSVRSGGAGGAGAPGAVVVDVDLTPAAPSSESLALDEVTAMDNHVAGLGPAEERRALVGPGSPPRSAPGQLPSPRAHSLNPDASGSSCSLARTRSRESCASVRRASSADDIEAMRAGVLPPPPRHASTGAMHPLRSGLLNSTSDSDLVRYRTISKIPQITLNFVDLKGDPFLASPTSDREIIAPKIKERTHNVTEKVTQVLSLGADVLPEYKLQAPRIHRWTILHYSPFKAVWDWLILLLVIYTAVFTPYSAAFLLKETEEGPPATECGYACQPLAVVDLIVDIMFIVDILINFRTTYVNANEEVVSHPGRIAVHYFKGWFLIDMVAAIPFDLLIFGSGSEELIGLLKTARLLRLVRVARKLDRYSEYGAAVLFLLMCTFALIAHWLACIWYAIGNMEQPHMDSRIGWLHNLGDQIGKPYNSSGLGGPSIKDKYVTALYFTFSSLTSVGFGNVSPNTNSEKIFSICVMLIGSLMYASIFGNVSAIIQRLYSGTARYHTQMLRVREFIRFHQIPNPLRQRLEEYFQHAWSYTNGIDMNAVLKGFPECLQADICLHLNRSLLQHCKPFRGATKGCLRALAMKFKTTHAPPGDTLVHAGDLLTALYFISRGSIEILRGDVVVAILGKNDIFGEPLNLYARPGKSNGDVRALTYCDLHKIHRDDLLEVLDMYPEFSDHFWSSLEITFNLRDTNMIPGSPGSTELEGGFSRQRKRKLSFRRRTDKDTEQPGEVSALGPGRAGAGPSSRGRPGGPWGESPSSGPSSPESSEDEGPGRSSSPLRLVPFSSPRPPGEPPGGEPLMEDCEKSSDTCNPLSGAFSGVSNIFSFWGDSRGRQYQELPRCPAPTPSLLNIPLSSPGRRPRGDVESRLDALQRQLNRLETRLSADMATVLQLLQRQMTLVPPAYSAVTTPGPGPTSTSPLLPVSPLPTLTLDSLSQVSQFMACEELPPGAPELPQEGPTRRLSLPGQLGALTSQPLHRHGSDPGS

What is called IC50 is the point on the concentration scale where inhibition reaches its midpoint. As usually defined, the Papp is a coefficient for how fast a substance crosses the barrier. `Cc1csc([C@@]2(CN)[C@@H]3CCN(c4cnc5c(-c6ccc7nc(C)sc7c6Cl)n[nH]c5n4)C[C@@H]32)n1`: the IC50 is 24 nM in [1], 2 nM in [2] and 4 nM in data set [4]. Further, the Papp at 4 h, 5 µM in [3] turned out to be 4.36 ×10⁻⁶ cm/s.
With `Cc1csc([C@]2(CN)[C@@H]3CCN(c4cnc5c(-c6cccc(Cl)c6Cl)n[nH]c5n4)C[C@@H]32)n1`, the values for the IC50 in data set [1], in data set [2] and in [4] were 58 nM, 3 nM and 28 nM, respectively. For the same compound, the Papp at 4 h, 5 µM in data set [3] was 1.75 ×10⁻⁶ cm/s.
A word on the AUC: it is the area under the concentration-time curve, a measure of exposure. As usually defined, the Cmax is the maximum level reached in the sampled fluid or tissue. As a reminder, the half-life is the time in which the quantity being followed falls by half. The low end stands for fast loss, the high end for slow loss. Usually bioavailability stands for dose-corrected exposure relative to a reference, in per cent. A lower bioavailability goes with little systemic uptake. By clearance is commonly meant a measure of how efficiently the substance is removed, as volume per time. Low values mean inefficient removal, high ones efficient removal. For `Cc1csc([C@@]2(CN)[C@@H]3CN(c4cnc5c(-c6ccc7nn(C)cc7c6Cl)n[nH]c5n4)C[C@@H]32)n1`, the solubility kinetic in [5] was 175 µM (≈ 86.1 µg/mL); in data set [9] it was 124 µM (≈ 61 µg/mL); in data set [12], 168 µM (≈ 82.7 µg/mL). Besides, in data set [6], the Ratio worked out at 0.7. Further, the values for the AUC at 24 h in data set [7], in data set [11] and in data set [19] were 0.58 µM·h, 0.01 µM·h and 0.05 µM·h, respectively. Also, the IC50 in data set [1] was above 30000 nM; in data set [2], 5 nM; in data set [13] it was 166 nM; in data set [4], 24 nM. In addition, the microsomal CLint at 1 µM stood at 25 µL/min/mg in data set [8] and 13.5 µL/min/mg in data set [14]. The compound further gave a Cmax in [10] of 10 nM. The compound also gave a half-life in data set [15] of 1.9 h. Further, the Vd in data set [16] was 1 L/kg. The Papp in [17] amounted to 9.2 ×10⁻⁶ cm/s. The compound also yielded a bioavailability in data set [18] of 1.2%. The clearance in data set [20] is 16.2 mL/min/kg.
